Assay results: ChEMBL document CHEMBL5543059, “Discovery of anti-inflammatory natural flavonoids: Diverse scaffolds and promising leads for drug discovery” (Eur J Med Chem, 2023)

Experiments:
[1] = system: Mus musculus; assay: Anti-inflammatory activity against TPA-induced mouse ear edema model assessed as inhibition of ear edema at 1 uM relative to control; type: functional; set-up: scale not given: the % may be the effect or the level left
[2] = system: BV-2; assay: Antiinflammatory activity in mouse BV-2 cells assessed as reduction in LPS-induced NO production by Griess reagent based analysis; type: functional, cell-based
[3] = system: BV-2; assay: Anti-inflammatory activity against mouse BV-2 cells assessed as inhibition of LPS-induced PGE2 production pretreated for 2 hrs followed stimulated with LPS for 22 hrs by ELISA analysis; type: functional, cell-based
[4] = system: BV-2; assay: Anti-inflammatory activity against mouse BV-2 cells assessed as inhibition of LPS-induced IL-6 pre-treated for 2 hrs followed stimulated with LPS for 22 hrs; type: functional, cell-based
[5] = system: BV-2; assay: Anti-inflammatory activity against mouse BV-2 cells assessed as inhibition of LPS-induced IL-1beta secretion at 50 uM pretreated for 2 hrs followed stimulated with LPS for 22 hrs by ELISA analysis relative to control; type: functional; set-up: scale not given: the % may be the effect or the level left; conditions: time 24 hrs
[6] = system: BV-2; assay: Anti-inflammatory activity against mouse BV-2 cells assessed as inhibition of LPS-induced COX-2 expression at 50 uM pretreated for 2 hrs followed stimulated with LPS for 22 hrs by ELISA analysis relative to control; type: functional; set-up: scale not given: the % may be the effect or the level left; conditions: time 24 hrs
[7] = system: BV-2; assay: Anti-inflammatory activity against mouse BV-2 cells assessed as inhibition of LPS-induced IL-1beta secretion pretreated for 2 hrs followed stimulated with LPS for 22 hrs by ELISA analysis; type: functional, cell-based
[8] = system: BV-2; assay: Anti-inflammatory activity against mouse BV-2 cells assessed as inhibition of LPS-induced IL-6 at 50 uM pre-treated for 2 hrs followed stimulated with LPS for 22 hrs relative to control; type: functional; set-up: scale not given: the % may be the effect or the level left; conditions: time 24 hrs
[9] = system: THP-1; assay: Anti-inflammatory activity in human THP-1 cells assessed as inhibition of LPS-stimulated NO production by ELISA analysis; type: functional, cell-based
[10] = system: RAW264.7; assay: Anti-inflammatory activity in mouse RAW264.7 cells assessed as reduction in LPS-induced NO production by ELISA analysis; type: functional, cell-based
[11] = system: BV-2; assay: Anti-inflammatory activity against mouse BV-2 cells assessed as inhibition of LPS-induced COX-2 expression pretreated for 2 hrs followed stimulated with LPS for 22 hrs by ELISA analysis; type: functional, cell-based
[12] = system: RAW264.7; assay: Anti-inflammatory activity against LPS-stimulated mouse RAW264.7 cells assessed as inhibition of IL-6 expression at 10 uM by qRT-PCR analysis relative to control; type: functional; set-up: scale not given: the % may be the effect or the level left
[13] = system: RAW264.7; assay: Anti-inflammatory activity against LPS-stimulated mouse RAW264.7 cells assessed as inhibition of IL-6 expression at 100 uM by qRT-PCR analysis relative to control; type: functional; set-up: scale not given: the % may be the effect or the level left
[14] = system: BV-2; assay: Anti-inflammatory activity against mouse BV-2 cells assessed as inhibition of LPS-induced PGE2 production at 50 uM pretreated for 2 hrs followed stimulated with LPS for 22 hrs by ELISA analysis relative to control; type: functional; set-up: scale not given: the % may be the effect or the level left; conditions: time 24 hrs
[15] = system: BV-2; assay: Anti-inflammatory activity in mouse BV-2 cells assessed as reduction in LPS-induced NO production; type: functional, cell-based
[16] = system: HepG2; assay: Anti-inflammatory activity against TNFalpha-induced human HepG2 cells assessed as inhibition of NF-kappaB activity pre-indubated for 1 hr followed by TNFalpha treatment measured for 5 hrs by luciferase based assay; type: functional, cell-based
[17] = system: RAW264.7; assay: Anti-inflammatory activity against mouse RAW264.7 cells assessed as reduction in NO production pre-incubated with compound for 1 hrs followed by LPS-stimulation and measured for 1 hrs by […]; type: functional, cell-based
[18] = Inhibition of nitric oxide synthase (unknown origin); set-up: species or system Homo sapiens
[19] = system: RAW264.7; assay: Anti-inflammatory activity in LPS-stimulated mouse RAW264.7 cells assessed as reduction in NO production incubated for 24 hrs by Griess reagent based assay; type: functional, cell-based; conditions: RAW264.7, 24 h
[20] = system: RAW264.7; assay: Anti-inflammatory activity in mouse RAW264.7 cells assessed as inhibition of LPS-induced IL-6 production at 50 microg/ml relative to control; type: functional; set-up: scale not given: the % may be the effect or the level left; conditions: dose 50 µg/ml
[21] = system: RAW264.7; assay: Anti-inflammatory activity in mouse RAW264.7 cells assessed as inhibition of LPS-induced TNF-alpha production at 50 microg/ml relative to control; type: functional; set-up: scale not given: the % may be the effect or the level left; conditions: dose 50 µg/ml
[22] = system: RAW264.7; assay: Anti-inflammatory activity in mouse RAW264.7 cells assessed as inhibition of LPS-induced TNFalpha production preincubated for 1 hr followed by LPS addition and measured after 24 hrs by ELISA; type: functional, cell-based
[23] = system: RAW264.7; assay: Anti-inflammatory activity in mouse RAW264.7 cells assessed as inhibition of LPS-induced IL-1beta production preincubated for 1 hr followed by LPS addition and measured after 24 hrs by ELISA; type: functional, cell-based
[24] = system: RAW264.7; assay: Anti-inflammatory activity in mouse RAW264.7 cells assessed as inhibition of LPS-induced IL-6 production preincubated for 1 hr followed by LPS addition and measured after 24 hrs by ELISA; type: functional, cell-based
[25] = system: RAW264.7; assay: Antiinflammatory activity in mouse RAW264.7 cells assessed as decrease in LPS-stimulated IL-6 mRNA level incubated for 3 hrs by RT-qPCR analysis; type: functional, cell-based; conditions: RAW264.7, 3 h
[26] = system: RAW264.7; assay: Antiinflammatory activity against mouse RAW264.7 cells assessed as reduction of LPS-induced NO production; type: functional, cell-based
[27] = Anti-inflammatory activity in LPS-stimulated human PBMC cells assessed as inhibition of TNFalpha at 100 ug/ml relative to control; type: functional; set-up: scale not given: the % may be the effect or the level left; conditions: dose 100 µg/ml
[28] = system: RAW264.7; assay: Antiinflammatory activity in mouse RAW264.7 cells assessed as decrease in LPS-induced IL-6 secretion after 24 hrs by ELISA method; type: functional, cell-based; conditions: RAW264.7, 24 h
[29] = system: BV-2; assay: Anti-inflammatory activity in mouse BV-2 cells assessed as inhibition of LPS-induced NO production preincubated with compound for 1 hrs followed by LPS stimulation and measured after 24 hrs by Griess reagent based assay; type: functional, cell-based
[30] = system: Neutrophil; assay: Inhibition of fMLP-induced cell migration in human neutrophil; type: functional, cell-based
[31] = system: RAW264.7; assay: Anti-inflammatory activity in LPS-stimulated mouse RAW264.7 cells assessed as inhibition of NO production by Griess reagent based analysis; type: functional, cell-based
[32] = system: RAW264.7; assay: Anti-inflammatory activity in LPS-stimulated mouse RAW264.7 cells assessed as inhibition of NO production by Griess reagent based assay; type: functional, cell-based

O=c1c(O)c(-c2ccccc2)oc2cc(O)cc(O)c12 [GALANGIN]
Activity [1]: 27.7%

COc1cc(-c2cc(=O)c3c(O)c(OC)c(O)cc3o2)ccc1O [JACEOSIDINE]
IC50 [2]: 27 µM

O=c1c(O)c(-c2ccc(O)cc2)oc2cc(O)cc(O)c12 [KAEMPFEROL]
IC50 [3]: 52.4 µM | IC50 [4]: 80.8 µM | Activity [5]: 53.2% | Activity [6]: 51.4% | IC50 [7]: 80.8 µM | Activity [8]: 28.1% | IC50 [9]: 15.9 µM | IC50 [10]: 14.1 µM | IC50 [11]: 60.1 µM | Activity [12]: 80.7% | Activity [13]: 64.5% | Activity [14]: 65.2% | IC50 [15]: 10.6 µM | IC50 [16]: 20.5 µM

O=C1C[C@@H](c2ccc(O)cc2)Oc2cc(O)ccc21 [LIQUIRTIGENIN]
IC50 [17]: 16.3 µM | IC50 [18]: 19.1 µM

O=c1cc(-c2ccc(O)c(O)c2)oc2cc(O)cc(O)c12 [LUTEOLIN]
IC50 [19]: 1.2 µM | Activity [20]: 37% | Activity [21]: 38%

O=c1c(O)c(-c2cc(O)c(O)c(O)c2)oc2cc(O)cc(O)c12 [MYRICETIN]
IC50 [22]: 23.9 µM | IC50 [23]: 19.2 µM | IC50 [24]: 19.7 µM

O=c1c(O)c(-c2ccc(O)c(O)c2)oc2cc(O)cc(O)c12 [QUERCETIN]
IC50 [25]: 22.5 µM | IC50 [26]: 14.2 µM | Activity [27]: 28.6% | Activity [12]: 83.3% | IC50 [28]: 35.5 µM | IC50 [16]: 15.1 µM | IC50 [29]: 12.6 µM

COc1cc(O)c2c(=O)cc(-c3ccccc3)oc2c1 [TECHTOCHRYSIN]
IC50 [30]: 1.77 µM

COc1cc(-c2cc(=O)c3c(O)cc(O)cc3o2)cc(OC)c1O [TRICIN]
IC50 [31]: 28 µM | IC50 [32]: 46.4 µM
